Laboratory results as given in patent EP0181109B1, “N6-benzopyrano- and benzothiopyrano-adenosines” (WARNER-LAMBERT COMPANY, priority 1984, dated 1986).

System: Carrageenan pleurisy
Assay: Carrageenan Pleurisy Assay
Format: in vivo
Details: IP route, rat
Procedure: Assessment of another activity is provided by the carrageenan pleurisy assay. This assay indicates antiinflammatory activity. Carrageenan pleurisy is induced as previously described by Carter, G. W., et al., in J. Pharm. Pharmacol 34:66-67, 1982. Carrageenan ([…]) is injected intrapleurally in a 0.25 ml volume of pyrogen-free saline. Four hours later, the rats are sacrificed and 2 ml of a phenol red solution (325 mg phenol red in 1 liter of 0.05 M phosphate buffered saline) are added to each pleural cavity. The contents of the cavities are mixed and transferred to glass test tubes. A 50 pl aliquot is removed from each tube and exudate cells are counted after red blood cells lysis (with Zapoglobin; Coulter Electronics, Hialeah FL) using a Coulter model ZBI counter. The remaining exudate-phenol red mixture is centrifuged at […] for 15 minutes. One hundred pl of the supernatent fluid is diluted with 3.9 ml of phosphate buffer (0.072 M of tribasic sodium phosphate Na3PO4·12H2O, in water) and the absorbance is measured at 650 nm.
Exudate volume is calculated as follows: [formula] where V1 = unknown volume of exudate, V2 = volume of dye added to cavity (2 ml), A1 = absorbance of exudate (assumed to be zero), A2 = absorbance of the phenol red solution, A3 = absorbance of exudate and phenol red solution.
Inhibition of exudate or formation is calculated by the following equations: • % inhibition (exudate) = [formula] • % inhibition (cell count) = [formula] ID50 values are calculated by Probit analysis.
The compound of Example 1 was adminstered one hour prior to carrageenan injection.

Row | SMILES | % Inhibition Exudate (3 mg/kg) [%] | % Inhibition WBC (3 mg/kg) [%] | % Inhibition Exudate (10 mg/kg) [%] | % Inhibition WBC (10 mg/kg) [%] | % Inhibition Exudate (1 mg/kg) [%] | % Inhibition WBC (1 mg/kg) [%] | % Inhibition Exudate (30 mg/kg) [%] | % Inhibition WBC (30 mg/kg) [%]
1 | OC[C@H]1O[C@@H](n2cnc3c(NC4COc5c(Cl)cccc5C4)ncnc32)[C@H](O)[C@@H]1O (stereo partly shown) [Example 5] | 22.7 | 27.2 | 40.2 | 68.0 |  |  |  | 
2 | COc1ccc2c(c1)CC(Nc1ncnc3c1ncn3[C@@H]1O[C@H](CO)[C@@H](O)[C@H]1O)CO2 (stereo partly shown) [Example 6] | 42.2 | 37.5 |  |  | 50.9 | 49.8 |  | 
3 | Cc1cc2c(cc1C)OCC(Nc1ncnc3c1ncn3[C@@H]1O[C@H](CO)[C@@H](O)[C@H]1O)C2 (stereo partly shown) [Example 9, N^6-[6,7-Dimethyl-3-chromanylamino]adenosine] | 12.5 | 13.0 |  |  |  |  | 31.9 | 30.6
4 | OC[C@H]1O[C@@H](n2cnc3c(NC4CCSc5ccccc54)ncnc32)[C@H](O)[C@@H]1O (stereo partly shown) [Example 15] |  |  | 63.9 | -16.9 | 13.5 | -10.7 |  | 
